Results as given in publication PMC11085872, “Structure-Based Design of Novel Thiazolone[3,2-a]pyrimidine Derivatives as Potent RNase H Inhibitors for HIV Therapy” (Molecules, 2024).

Key:
[1] = target: T1, HIV-1 RT-associated RNase H (Human immunodeficiency virus type 1 group M subtype B, UniProt P03366); assay: RNase H polymerase-independent cleavage assay; format: biochemical; conditions: for IC50: IC50, compound concentration required to reduce HIV-1 RT-associated RNase H activity by 50%, recombinant HIV-1 wt RT, hybrid RNA/DNA substrate, 37 °C, 1 hour
T1 construct: His-tagged p66/p51 HIV-1 RT group M subtype B; His tag; made in house; host or cells: Escherichia coli strain M15 (plasmid p6HRT-prot)
Experimental: The Ar^1 and Ar^2 aromatic segments of the molecule also approach the protein surface, through hydrophobic interactions. These findings provide important information for further structural optimization. All these newly designed thiazolone[3,2-a]pyrimidine derivatives were evaluated for their inhibitory activity against HIV RT-associated RNase H, using the diketo acid RDS1643 as positive control. […] The decrease in activity observed in compounds containing a sulfonic acid group might be attributed to the excessively strong acidity of the sulfonic acid group, which could protonate the diazo group within the molecule. […] When Ar^2 was changed from a phenyl group to a naphthyl group, the activity of compound 10f gained a great improvement over that of compound 10k. […] And when a negatively charged polar group was present at the 2-position of Ar^2, the inhibitory activity is enhanced. […]
3. Biology Experimental section
3.1 Expression and purification of recombinant HIV-1 RTs.
His-tagged p66/p51 HIV-1 RT group M subtype B coded in a p6HRT-prot plasmid was expressed in the Escherichia coli strain M15.1 Heterodimeric RTs were expressed essentially and purified as described.2 E. coli cells harboring the expression vector were cultured until reaching an optical density at 600 nm of 0.7. Induction of protein expression was achieved by treating the cells with 1.7 mM isopropyl β-D-1-thiogalactopyranoside (IPTG) for a duration of 4 hours. The subsequent purification of the protein was performed using a BioLogic LP system (BioRad) employing a combination of immobilized metal affinity chromatography and ion exchange […]
To initiate the purification process, the cell pellets were resuspended in lysis buffer at a ratio of 1:2 (cell pellet volume: lysis buffer volume). The lysis buffer used consisted of 50 mM sodium phosphate buffer with a pH of 7.8, supplemented with 0.5 mg/ml lysozyme. The resuspended cells were incubated on ice for 20 minutes. Following this, NaCl was added to achieve a final concentration of 0.3 M. The cells were then subjected to sonication, with four cycles of 60 seconds each, alternating between one second on and one second off. Subsequently, the cell lysate was centrifuged at 30, 000×g for 1 […]
The supernatant obtained from the centrifugation step was loaded onto a Ni2+-NTA-Sepharose column that had been pre-equilibrated with a loading buffer consisting of 50 mM sodium phosphate buffer (pH 7.8), 0.3 M NaCl, 10% glycerol, and 10 mM imidazole. The column was washed with a buffer containing 50 mM sodium phosphate buffer (pH 6.0), 0.3 M NaCl, 10% glycerol, and 80 mM imidazole. The target protein, RT, was eluted using an imidazole gradient ranging from 0.08 M to 0.5 M in the wash buffer. Fractions containing the enzyme were collected and combined, and then diluted 1:1 with 50 mM sodium phosphate buffer (pH 7.0) containing 10% glycerol. The diluted protein sample was loaded onto a Hi-trap heparin HP column that had been pre-equilibrated with 10 column volumes of a loading buffer consisting of 50 mM sodium phosphate buffer (pH 7.0), 10% glycerol, and 150 mM NaCl. The column was washed with the loading buffer, and the RT enzyme was eluted using Elute Buffer 2, which
(1 picture or pasted object on this page, not shown here) […]
comprised 50 mM sodium phosphate buffer (pH 7.0), 10% glycerol, and 1 M NaCl.
The eluted fractions containing the purified protein were collected, and the protein was subsequently dialyzed and stored in a buffer composed of 50 mM Tris-HCl (pH 7.0), 25 mM NaCl, 1 mM EDTA, and 50% glycerol. The catalytic activities of the purified protein samples were determined, and aliquots were stored at -80 °C for further use.
3.2 RNase H Polymerase-Independent Cleavage Assay
The HIV-1 RT-associated RNase H activity was measured as described.3 In summary, the reaction was performed in a black 96-well plate with a total volume of 100 μL. The reaction mix consisted of 50 mM Tris HCl (pH 7.8), 6 mM MgCl2, 1 mM dithiothreitol […]

COC(=O)C1=C(C)N=C2SC(=NNc3ccccc3C(=O)OC)C(=O)N2C1c1ccc(OC)c(OC)c1OC (stereo not shown) [Compound 11h, Methyl 2-(2-(2-(methoxycarbonyl)phenyl)hydrazineylidene)-7-methyl-3-oxo-5-(2,3,4-trimethoxyphenyl)-2,3-dihydro-5H-thiazolo[3,2-a]pyrimidine-6-carboxylate]
IC50 [1]: 10 ± 0.95 µM
melting point: 200 to 202 °C

COC(=O)C1=C(C)N=C2SC(=NNc3ccccc3C(C)=O)C(=O)N2C1c1ccc(OC)c(OC)c1OC (stereo not shown) [Compound 11i, Methyl 2-(2-(2-acetylphenyl)hydrazineylidene)-7-methyl-3-oxo-5-(2,3,4-trimethoxyphenyl)-2,3-dihydro-5H-thiazolo[3,2-a]pyrimidine-6-carboxylate]
IC50 [1]: > 100 µM
remaining activity at 100 µM ([1]; read-out: Percentage of the control activity measured at the indicated compound concentration): 100%
melting point: 205 to 208 °C

COC(=O)C1=C(C)N=C2SC(=NNc3cccc(C(=O)OC)c3)C(=O)N2C1c1ccc(OC)c(OC)c1OC (stereo not shown) [Compound 11j, Methyl 2-(2-(3-(methoxycarbonyl)phenyl)hydrazineylidene)-7-methyl-3-oxo-5-(2,3,4-trimethoxyphenyl)-2,3-dihydro-5H-thiazolo[3,2-a]pyrimidine-6-carboxylate]
IC50 [1]: 42.1 ± 9.78 µM
melting point: 213 to 215 °C

COC(=O)C1=C(C)N=C2SC(=NNc3cccc(C(C)=O)c3)C(=O)N2C1c1ccc(OC)c(OC)c1OC (stereo not shown) [Compound 11k, Methyl 2-(2-(3-acetylphenyl)hydrazineylidene)-7-methyl-3-oxo-5-(2,3,4-trimethoxyphenyl)-2,3-dihydro-5H-thiazolo[3,2-a]pyrimidine-6-carboxylate]
IC50 [1]: 22 ± 0.36 µM
melting point: 216 to 219 °C

COC(=O)C1=C(C)N=C2SC(=NNc3ccccc3C(C)=O)C(=O)N2C1c1ccc(OC)cc1 (stereo not shown) [Compound 12a, Methyl 2-(2-(2-acetylphenyl)hydrazineylidene)-5-(4-methoxyphenyl)-7-methyl-3-oxo-2,3-dihydro-5H-thiazolo[3,2-a]pyrimidine-6-carboxylate]
IC50 [1]: 3.98 ± 0.3 µM
melting point: 199 to 201 °C

COC(=O)C1=C(C)N=C2SC(=NNc3ccccc3C(=O)OC)C(=O)N2C1c1ccc(OC)cc1 (stereo not shown) [Compound 12b, Methyl 2-(2-(2-(methoxycarbonyl)phenyl)hydrazineylidene)-5-(4-methoxyphenyl)-7-methyl-3-oxo-2,3-dihydro-5H-thiazolo[3,2-a]pyrimidine-6-carboxylate]
IC50 [1]: 2.97 ± 0.88 µM
melting point: 219 to 221 °C

COC(=O)C1=C(C)N=C2SC(=NNc3cccc(C(=O)OC)c3)C(=O)N2C1c1ccc(OC)cc1 (stereo not shown) [Compound 12c, Methyl 2-(2-(3-(methoxycarbonyl)phenyl)hydrazineylidene)-5-(4-methoxyphenyl)-7-methyl-3-oxo-2,3-dihydro-5H-thiazolo[3,2-a]pyrimidine-6-carboxylate]
IC50 [1]: 4.71 ± 0.86 µM
melting point: 209 to 211 °C

COC(=O)C1=C(C)N=C2SC(=NNc3cc(OC)c(OC)c(OC)c3)C(=O)N2C1c1ccc(OC)cc1 (stereo not shown) [Compound 12e, Methyl 5-(4-methoxyphenyl)-7-methyl-3-oxo-2-(2-(3,4,5-trimethoxyphenyl)hydrazineylidene)-2,3-dihydro-5H-thiazolo[3,2-a]pyrimidine-6-carboxylate]
IC50 [1]: 8.99 ± 0.27 µM
melting point: 204 to 206 °C

COC(=O)C1=C(C)N=C2S/C(=N\Nc3ccc4ccccc4c3S(=O)(=O)O)C(=O)N2C1c1ccc(OC)cc1 (stereo not shown) [Compound 12f]
IC50 [1]: 3.28 µM
melting point: 271 to 273 °C
